# According to patent US20100297692A1, “REACTION MEDIUM FOR DETECTING AND/OR IDENTTIFYING STAPHYLOCCOUS AUREUS” (BIOMERIEUX, priority 2007, published 2010):
# Legend:
# Test in all cases: β-D-ribosidase substrates in Columbia agar, colored or fluorescent colonies
# [1] = system: S. aureus (MRSA); format: cell-based, Staphylococcus aureus
# Experimental: (§1) The media hereinafter were prepared in 200 ml of a Columbia agar base (Oxoid), in combination with the chromogenic β-D-ribosidase substrates. The various substrates and also the concentrations and the additives used in the media are described in Table 1 below:
# (§2) The β-D-ribosidase substrates are solubilized in DMSO and added to the media so as to obtain the concentrations indicated in Table 1.
# (§3) 191 bacterial strains were inoculated onto each of the media using a suspension at 0.5 MacFarland diluted to 1/1000. The dishes were incubated at 37° C. and then read.
# (§4) The media were distributed into Petri dishes, then inoculated with approximately 100 000 CFU, then incubated at 37° C. for 48 h. The colonies formed were examined visually after incubation times of 18, 24 and 48 hours.
# (§5) The stock collection of 191 strains comprised: […], 48 Staphylococcus spp, 61 Enterococcus spp and 3 alpha-hemolytic Streptococcus.
# [2] = system: S. aureus (MSSA); format: cell-based, Staphylococcus aureus
# Experimental: as §1, §2, §3, §4, §5
# [3] = system: Coagulase-negative Staphylococci; format: cell-based, Staphylococcus spp; conditions: Coagulase-negative Staphylococci
# Experimental: as §1, §2, §3, §4, §5
# [4] = system: Micrococcus luteus; format: cell-based
# Experimental: [The procedure below names another organism; the source lists this organism under the same test.] as §1, §2, §3, §4, §5
# [5] = system: Enterococci; format: cell-based, Enterococcus spp
# Experimental: as §1, §2, §3, §4, §5
# [6] = system: Alpha-hemolytic streptococci; format: cell-based, alpha-hemolytic Streptococcus
# Experimental: as §1, §2, §3, §4, §5
# [7] = 400 mg/L + ammoniacal iron citrate 100 mg/l, 18 h
# [8] = 400 mg/L + ammoniacal iron citrate 100 mg/l, 24 h
# [9] = 400 mg/L + ammoniacal iron citrate 100 mg/l, 48 h
molecule,measurement,setting,value
5-Bromo-6-chloro-3-indoxyl-beta-D-riboside [Magenta-β-riboside],% of strains producing colored or fluorescent colonies,"[1]; 100 mg/L, 18 h",71%
same,% of strains producing colored or fluorescent colonies,"[1]; 100 mg/L, 24 h",85%
same,% of strains producing colored or fluorescent colonies,"[1]; 100 mg/L, 48 h",95%
same,% of strains producing colored or fluorescent colonies,"[2]; 100 mg/L, 18 h",64%
same,% of strains producing colored or fluorescent colonies,"[2]; 100 mg/L, 24 h",64%
same,% of strains producing colored or fluorescent colonies,"[2]; 100 mg/L, 48 h",100%
same,% of strains producing colored or fluorescent colonies,"[3]; 100 mg/L, 18 h",0%
same,% of strains producing colored or fluorescent colonies,"[3]; 100 mg/L, 24 h",3%
same,% of strains producing colored or fluorescent colonies,"[3]; 100 mg/L, 48 h",6%
same,% of strains producing colored or fluorescent colonies,"[4]; 100 mg/L, 18 h",0%
same,% of strains producing colored or fluorescent colonies,"[4]; 100 mg/L, 24 h",0%
same,% of strains producing colored or fluorescent colonies,"[4]; 100 mg/L, 48 h",0%
same,% of strains producing colored or fluorescent colonies,"[5]; 100 mg/L, 18 h",0%
same,% of strains producing colored or fluorescent colonies,"[5]; 100 mg/L, 24 h",2%
same,% of strains producing colored or fluorescent colonies,"[5]; 100 mg/L, 48 h",2%
same,% of strains producing colored or fluorescent colonies,"[6]; 100 mg/L, 18 h",0%
same,% of strains producing colored or fluorescent colonies,"[6]; 100 mg/L, 24 h",0%
same,% of strains producing colored or fluorescent colonies,"[6]; 100 mg/L, 48 h",0%
"Cc1cc(=O)oc2cc(O[C@@H]3O[C@H](CO)[C@@H](O)[C@H]3O)ccc12 [4-MU-β-riboside, 4-Methylumbelliferyl-beta-D-riboside]",% of strains producing colored or fluorescent colonies,"[1]; 50 mg/L, 18 h",97%
same,% of strains producing colored or fluorescent colonies,"[1]; 50 mg/L, 24 h",97%
same,% of strains producing colored or fluorescent colonies,"[1]; 50 mg/L, 48 h",97%
same,% of strains producing colored or fluorescent colonies,"[2]; 50 mg/L, 18 h",100%
same,% of strains producing colored or fluorescent colonies,"[2]; 50 mg/L, 24 h",100%
same,% of strains producing colored or fluorescent colonies,"[2]; 50 mg/L, 48 h",100%
same,% of strains producing colored or fluorescent colonies,"[3]; 50 mg/L, 18 h",82%
same,% of strains producing colored or fluorescent colonies,"[3]; 50 mg/L, 24 h",82%
same,% of strains producing colored or fluorescent colonies,"[3]; 50 mg/L, 48 h",82%
same,% of strains producing colored or fluorescent colonies,"[4]; 50 mg/L, 18 h",0%
same,% of strains producing colored or fluorescent colonies,"[4]; 50 mg/L, 24 h",0%
same,% of strains producing colored or fluorescent colonies,"[4]; 50 mg/L, 48 h",0%
same,% of strains producing colored or fluorescent colonies,"[5]; 50 mg/L, 18 h",57%
same,% of strains producing colored or fluorescent colonies,"[5]; 50 mg/L, 24 h",57%
same,% of strains producing colored or fluorescent colonies,"[5]; 50 mg/L, 48 h",49%
same,% of strains producing colored or fluorescent colonies,"[6]; 50 mg/L, 18 h",0%
same,% of strains producing colored or fluorescent colonies,"[6]; 50 mg/L, 24 h",0%
same,% of strains producing colored or fluorescent colonies,"[6]; 50 mg/L, 48 h",0%
"OC[C@H]1O[C@@H](Oc2c[nH]c3cc(Cl)ccc23)[C@H](O)[C@@H]1O [Pink-β-riboside, 6-Chloro-3-indoxyl-beta-D-riboside]",% of strains producing colored or fluorescent colonies,"[1]; 100 mg/L, 18 h",91%
same,% of strains producing colored or fluorescent colonies,"[1]; 100 mg/L, 24 h",96%
same,% of strains producing colored or fluorescent colonies,"[1]; 100 mg/L, 48 h",100%
same,% of strains producing colored or fluorescent colonies,"[1]; 200 mg/L, 18 h",84%
same,% of strains producing colored or fluorescent colonies,"[1]; 200 mg/L, 24 h",94%
same,% of strains producing colored or fluorescent colonies,"[1]; 200 mg/L, 48 h",100%
same,% of strains producing colored or fluorescent colonies,"[2]; 100 mg/L, 18 h",64%
same,% of strains producing colored or fluorescent colonies,"[2]; 100 mg/L, 24 h",64%
same,% of strains producing colored or fluorescent colonies,"[2]; 100 mg/L, 48 h",100%
same,% of strains producing colored or fluorescent colonies,"[2]; 200 mg/L, 18 h",57%
same,% of strains producing colored or fluorescent colonies,"[2]; 200 mg/L, 24 h",64%
same,% of strains producing colored or fluorescent colonies,"[2]; 200 mg/L, 48 h",100%
same,% of strains producing colored or fluorescent colonies,"[3]; 100 mg/L, 18 h",3%
same,% of strains producing colored or fluorescent colonies,"[3]; 100 mg/L, 24 h",3%
same,% of strains producing colored or fluorescent colonies,"[3]; 100 mg/L, 48 h",3%
same,% of strains producing colored or fluorescent colonies,"[3]; 200 mg/L, 18 h",3%
same,% of strains producing colored or fluorescent colonies,"[3]; 200 mg/L, 24 h",3%
same,% of strains producing colored or fluorescent colonies,"[3]; 200 mg/L, 48 h",6%
same,% of strains producing colored or fluorescent colonies,"[4]; 100 mg/L, 18 h",0%
same,% of strains producing colored or fluorescent colonies,"[4]; 100 mg/L, 24 h",0%
same,% of strains producing colored or fluorescent colonies,"[4]; 100 mg/L, 48 h",0%
same,% of strains producing colored or fluorescent colonies,"[4]; 200 mg/L, 18 h",0%
same,% of strains producing colored or fluorescent colonies,"[4]; 200 mg/L, 24 h",0%
same,% of strains producing colored or fluorescent colonies,"[4]; 200 mg/L, 48 h",0%
same,% of strains producing colored or fluorescent colonies,"[5]; 100 mg/L, 18 h",0%
same,% of strains producing colored or fluorescent colonies,"[5]; 100 mg/L, 24 h",0%
same,% of strains producing colored or fluorescent colonies,"[5]; 100 mg/L, 48 h",2%
same,% of strains producing colored or fluorescent colonies,"[5]; 200 mg/L, 18 h",0%
same,% of strains producing colored or fluorescent colonies,"[5]; 200 mg/L, 24 h",0%
same,% of strains producing colored or fluorescent colonies,"[5]; 200 mg/L, 48 h",0%
same,% of strains producing colored or fluorescent colonies,"[6]; 100 mg/L, 18 h",0%
same,% of strains producing colored or fluorescent colonies,"[6]; 100 mg/L, 24 h",0%
same,% of strains producing colored or fluorescent colonies,"[6]; 100 mg/L, 48 h",0%
same,% of strains producing colored or fluorescent colonies,"[6]; 200 mg/L, 18 h",0%
same,% of strains producing colored or fluorescent colonies,"[6]; 200 mg/L, 24 h",0%
same,% of strains producing colored or fluorescent colonies,"[6]; 200 mg/L, 48 h",0%
Dihydroxyflavone-beta-D-riboside [DHF-β-riboside],% of strains producing colored or fluorescent colonies,[1]; [7],100%
same,% of strains producing colored or fluorescent colonies,[1]; [8],100%
same,% of strains producing colored or fluorescent colonies,[1]; [9],100%
same,% of strains producing colored or fluorescent colonies,[2]; [7],100%
same,% of strains producing colored or fluorescent colonies,[2]; [8],100%
same,% of strains producing colored or fluorescent colonies,[2]; [9],100%
same,% of strains producing colored or fluorescent colonies,[3]; [7],68%
same,% of strains producing colored or fluorescent colonies,[3]; [8],68%
same,% of strains producing colored or fluorescent colonies,[3]; [9],91%
same,% of strains producing colored or fluorescent colonies,[4]; [7],0%
same,% of strains producing colored or fluorescent colonies,[4]; [8],0%
same,% of strains producing colored or fluorescent colonies,[4]; [9],0%
same,% of strains producing colored or fluorescent colonies,[5]; [7],30%
same,% of strains producing colored or fluorescent colonies,[5]; [8],30%
same,% of strains producing colored or fluorescent colonies,[5]; [9],48%
same,% of strains producing colored or fluorescent colonies,[6]; [7],0%
same,% of strains producing colored or fluorescent colonies,[6]; [8],0%
same,% of strains producing colored or fluorescent colonies,[6]; [9],0%
